Experimental data as given in US20250257058A1, “COMPOSITIONS AND METHODS FOR INHIBITING CARP-1 BINDING TO NEMO” (The United States Government as represented by the …, priority 2022, published 2025).
“Also recorded” adds a separate entry of the source. Where two headings read alike, the source gives them in different places.

Legend:
MDA-MB-468 cells = experiment: MTT cytotoxicity assay in MDA-MB-468 cells; format: cell-based; settings: for Cell viability inhibition in combination with cisplatin compared with SNI-1: MDA-MB-468, 5 μM compound + 20 μM cisplatin; for Cell viability inhibition (%) (Single agent) MDA-MB-468: MTT, SNI analogs 5 μM, doxorubicin 5 μM, cisplatin 20 μM; for Cell viability inhibition as single agent compared with SNI-1: MDA-MB-468, single agent; for Cytotoxicity in combination with doxorubicin compared with SNI-1: MDA-MB-468, 5 μM compound + 5 μM doxorubicin
Description: (§1) The cell lines were cultured in Dulbecco's Modified Eagle's Medium and Roswell Park Memorial Institute (RPMI) as per ATCC recommendation. Media was supplemented with 10% FBS, 2 mM L-glutamine, 100 U/ml penicillin, and 100 mg/ml streptomycin and incubated at 37° C. in a 5% CO2 air humidified atmosphere.
(§2) For the in vitro cytotoxicity studies, cells were seeded in 96-well plates with approximately 5000-8000 cells per well, depending upon the cell's exponential growth.
(§3) For cytotoxic response, cells were analyzed using the MTT reagent dissolved in PBS (1 mg/ml) at pH 7.4. […] Cells were then incubated again for 2-4 hours at 37° C., after which time the MTT reagent was added and the cells were incubated an additional 2 hours. Following this, the media was supplanted by DMSO, and the plates were put on a shaker for 15 min. The absorbance was measured at 570 nm using a high-performance multi-mode plate reader (Synergy 2, BioTek). The percentage of surviving cells was calculated by comparing the treated cells' absorbance and legitimate controls cells. The same procedure was followed for all the cell lines and later calculate the percentage of viable cells independently.

MDA-MB-231 cells [1] = experiment: MTT cytotoxicity assay in MDA-MB-231 cells; format: cell-based; settings: for cytotoxicity at 5 µM: Homo sapiens; for Inhibition of viabilities as single agent compared with SNI-1: 24 h or 48 h
Description: Here, SNI-1 analogs were synthesized by incorporating combinations of substitutions on Rings A and C (FIG. 8). The efficacy of these compounds was analyzed in two different cell lines: MDA-MB-468 and MDA-MB-231. […] The duration of treatment time was 24 h for […] and 24 h and 48 h for MDA-MB-231 cells. These cells are a more aggressive form of TNBC cells. It expresses both epidermal growth factor (EGF) and transforming growth factor-alpha (TGF alpha) receptors.

HCC-1937 cells [2] = experiment: MTT cytotoxicity assay in HCC-1937 cells (BRCA-1 mutation); settings: 24 h
Description: as §1, §2, §3
(§4) Each histogram's columns indicate the percent of live/viable cells relative to their DMSO-treated controls.

HCC-1937 cells [3] = settings: human, 24 h, 5 μM
Description: as §1, §2, §3, §4

CARP-1 and NEMO binding = target: T1, CARP-1 and NEMO binding (Homo sapiens, UniProt Q8IX12); settings: biochemical mechanism; cited from earlier work
T1 sequence (Q8IX12 1-1150): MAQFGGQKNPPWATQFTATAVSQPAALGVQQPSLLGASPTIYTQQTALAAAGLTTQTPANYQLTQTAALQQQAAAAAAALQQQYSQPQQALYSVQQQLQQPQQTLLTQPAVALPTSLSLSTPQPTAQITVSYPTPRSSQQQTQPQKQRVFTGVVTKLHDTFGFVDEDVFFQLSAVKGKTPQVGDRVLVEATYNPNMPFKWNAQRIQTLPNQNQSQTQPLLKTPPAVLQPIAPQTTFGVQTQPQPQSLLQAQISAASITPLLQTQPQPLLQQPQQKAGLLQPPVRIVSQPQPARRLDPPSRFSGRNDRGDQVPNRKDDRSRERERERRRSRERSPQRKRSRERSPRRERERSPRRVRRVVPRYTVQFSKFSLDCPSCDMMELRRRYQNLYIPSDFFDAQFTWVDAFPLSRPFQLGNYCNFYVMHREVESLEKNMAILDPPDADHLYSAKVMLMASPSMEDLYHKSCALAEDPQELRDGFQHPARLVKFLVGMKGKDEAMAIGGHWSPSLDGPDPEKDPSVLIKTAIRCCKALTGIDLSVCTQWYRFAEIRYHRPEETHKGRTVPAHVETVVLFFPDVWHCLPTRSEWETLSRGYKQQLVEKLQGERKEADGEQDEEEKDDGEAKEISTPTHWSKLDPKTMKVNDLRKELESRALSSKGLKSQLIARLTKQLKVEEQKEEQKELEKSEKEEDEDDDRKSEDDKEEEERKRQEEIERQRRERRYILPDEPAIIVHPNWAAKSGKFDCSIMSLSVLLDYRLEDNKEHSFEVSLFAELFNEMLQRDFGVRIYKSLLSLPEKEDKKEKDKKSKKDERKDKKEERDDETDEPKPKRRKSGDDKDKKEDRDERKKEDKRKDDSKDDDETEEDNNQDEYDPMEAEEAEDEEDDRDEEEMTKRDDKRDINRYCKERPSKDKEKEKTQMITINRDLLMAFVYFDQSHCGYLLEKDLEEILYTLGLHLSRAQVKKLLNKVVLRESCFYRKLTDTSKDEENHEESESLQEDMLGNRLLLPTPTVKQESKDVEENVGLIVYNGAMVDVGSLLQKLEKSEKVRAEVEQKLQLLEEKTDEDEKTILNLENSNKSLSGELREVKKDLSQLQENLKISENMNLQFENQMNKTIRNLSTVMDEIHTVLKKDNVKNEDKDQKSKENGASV

4T1 TNBC = settings: cited from earlier work
MDA-MB-231 cells [4] = settings: MDA-MB-231, 4T1 and resistant TNBC cells; 5 μM SNI-1 + 20 μM cisplatin; cited from earlier work
[5] = Homo sapiens, MDA-MB-468, 5 μM compound + 5 μM doxorubicin, 24 h, read-out: Cell viability inhibition (%) with Doxorubicin MDA-MB-468
[6] = MDA-MB-231, 5 μM compound + 5 μM doxorubicin, 24 h, read-out: Cell viability inhibition (%) with Doxorubicin MDA-MB-231
[7] = single agent, SNI analogs 5 μM, doxorubicin 5 μM

SMILES | Cell viability inhibition in combination with cisplatin compared with SNI-1 (MDA-MB-468 cells; 24 h) | Cell viability inhibition (%) (Single agent) MDA-MB-468 (MDA-MB-468 cells; single agent, 24 h) | cytotoxicity at 5 µM (MDA-MB-468 cells; [5]) | Cell viability inhibition (%) Single-agent HCC-1937 (HCC-1937 cells [3]) | cytotoxicity at 5 µM (MDA-MB-231 cells [1]; [6]) | Cell viability inhibition (%) Single-agent MDA-MB-231 (MDA-MB-231 cells [1]; [7]) | also measured
COc1cccc2c1C(=O)c1c(O)c3c(c(O)c1C2=O)C[C@@](O)(C(=O)CO)C[C@@H]3O[C@H]1C[C@H](N)[C@H](O)[C@H](C)O1 [Doxorubicin, reference compound] |  |  |  |  |  |  | cytotoxicity at 5 µM (MDA-MB-468 cells; Homo sapiens, MDA-MB-468, 24 h, read-out: Cell viability inhibition (%) (Single agent) MDA-MB-468): ~39%; cytotoxicity at 5 µM (MDA-MB-231 cells [1]; MDA-MB-231, single agent, SNI analogs 5 μM, doxorubicin 5 μM, read-out: Cell viability inhibition (%) Single-agent MDA-MB-231): ~56%
O=C(CSc1nc(-c2ccccc2)cs1)c1ccc(O)c(O)c1 [GL-216] | viability inhibition equal to or better than parent SNI-1 | 10% |  |  |  |  | Cell viability inhibition (%) with Doxorubicin MDA-MB-468 (MDA-MB-468 cells; 5 μM compound + 5 μM doxorubicin, 24 h): ~80%; Cell viability inhibition (%) with Cisplatin HCC-1937 (HCC-1937 cells [2]; 5 μM compound + 20 μM cisplatin): ~46%; Cell viability inhibition (%) Single-agent HCC-1937 (HCC-1937 cells [2]; single agent, SNI analogs 5 μM, cisplatin 20 μM): ~5%
CCOC(=O)c1ccc(-n2nnnc2SCC(=O)c2ccc(O)c(O)c2)cc1 [GL-251, Ethyl 4-(5-((2-(3,4-dihydroxyphenyl)-2-oxoethyl)thio)-1H-tetrazol-1-yl)benzoate] |  |  |  |  |  |  | Cell viability inhibition as single agent compared with SNI-1 (MDA-MB-468 cells; 5 μM, 24 h): greater cell viability inhibition as a single agent when compared to SNI-1
NS(=O)(=O)c1ccc(-n2nnnc2SCC(=O)c2ccc(O)c(O)c2)cc1 [GL-252, 4-(5-((2-(3,4-dihydroxyphenyl)-2-oxoethyl)thio)-1H-tetrazol-1-yl)benzenesulfonamide] | slightly higher viability inhibition compared with cisplatin and SNI-1 in combination or cisplatin alone; also recorded: viability inhibition equal to or better than parent SNI-1 | 18% | 62% | ~10% |  |  | Cell viability inhibition as single agent compared with SNI-1 (MDA-MB-468 cells; 5 μM, 24 h): greater cell viability inhibition as a single agent when compared to SNI-1
Cc1ccc(-n2nnnc2SCC(=O)c2ccc3c(c2)OCCO3)cc1 [GL-268, 1-(2,3-dihydrobenzo[b][1,4]dioxin-6-yl)-2-((1-(p-tolyl)-1H-tetrazol-5-yl)thio)ethan-1-one] | viability inhibition equal to or better than parent SNI-1 |  |  |  |  |  | 
Cc1ccc(-n2nnnc2SCC(=O)c2ccc(N3CCOCC3)cc2)cc1 [GL-269, 1-(4-morpholinophenyl)-2-((1-(p-tolyl)-1H-tetrazol-5-yl)thio)ethan-1-one] | much better activity in combination with cisplatin; also recorded: viability inhibition equal to or better than parent SNI-1 | 37% | 53% | ~10% |  |  | 
COc1ccc(C(=O)CSc2nnnn2-c2ccc(C)cc2)cc1OC [GL-339, 1-(3,4-dimethoxyphenyl)-2-((1-(p-tolyl)-1H-tetrazol-5-yl)thio)ethan-1-one] | greater inhibition in combination with cisplatin |  |  |  |  |  | 
O=C(CSc1nnnn1-c1ccc(Cl)cc1Cl)c1ccc(O)c(O)c1 [GL-341, 2-((1-(2,4-dichlorophenyl)-1H-tetrazol-5-yl)thio)-1-(3,4-dihydroxyphenyl)ethan-1-one] | greater inhibitory effect | ~3% | ~49% | ~6% | ~68% | ~21% | Cytotoxicity in combination with doxorubicin compared with SNI-1 (MDA-MB-468 cells; 24 h): slightly higher cytotoxicity; Efficacy in combination with cisplatin compared with SNI-1 (MDA-MB-231 cells [1]; MDA-MB-231, 5 μM compound + 20 μM cisplatin, 48 h): better efficacy when used in combination with cisplatin compared to SNI-1 and cisplatin itself; Inhibition of viabilities as single agent compared with SNI-1 (MDA-MB-231 cells [1]; MDA-MB-231, single agent, 5 μM): greater inhibition of viabilities than SNI-1
O=C(CSc1nnnn1-c1ccc([N+](=O)[O-])cc1)c1ccc(O)c(O)c1 [GL-342, 1-(3,4-dihydroxyphenyl)-2-((1-(4-nitrophenyl)-1H-tetrazol-5-yl)thio)ethan-1-one] | greater inhibitory effect | ~22.27% | ~50% | ~21% | ~73% | ~23% | Extra loss of cell viability versus parent SNI-1 at 5 µM (MDA-MB-468 cells; Homo sapiens, MDA-MB-468 (FIG. 9), single agent, 5 μM, 24 h, read-out: Greater loss of cell viability as compared to parent SNI-1): ~10%; Cytotoxicity in combination with doxorubicin compared with SNI-1 (MDA-MB-468 cells; 24 h): slightly higher cytotoxicity; Cell viability inhibition as single agent compared with SNI-1 (MDA-MB-468 cells; 5 μM, 24 h): more cell viability inhibition; Inhibition of viabilities as single agent compared with SNI-1 (MDA-MB-231 cells [1]; MDA-MB-231, single agent, 5 μM): more cell viability inhibition; also recorded: greater inhibition of viabilities than SNI-1; Activity in combination with cisplatin compared with SNI-1 (HCC-1937 cells [2]; HCC-1937, 5 μM compound + 20 μM cisplatin): more cell viability inhibition than SNI-1 in combination with cisplatin
NS(=O)(=O)c1ccc(-n2nnnc2SCC(=O)c2ccc(N3CCOCC3)cc2)cc1 [GL-343, 4-(5-((2-(4-morpholinophenyl)-2-oxoethyl)thio)-1H-tetrazol-1-yl)benzenesulfonamide] |  | ~2% | ~57% | ~1% | ~79% | ~36% | cytotoxicity at 5 µM (MDA-MB-231 cells [1]; MDA-MB-231, single agent, 5 μM, read-out: Greater inhibition of cell viability when compared with SNI-1 as a single agent): ~30%; Cytotoxicity in combination with doxorubicin compared with SNI-1 (MDA-MB-231 cells [1]; MDA-MB-231, 5 μM compound + 5 μM doxorubicin, 24 h): much better cytotoxicity when compared with SNI-1; Inhibition of viabilities as single agent compared with SNI-1 (MDA-MB-231 cells [1]; MDA-MB-231, single agent, 5 μM): greater inhibition of viabilities than SNI-1
Cc1ccc(-n2nnnc2SCC(=O)c2ccc(O)c(O)c2)cc1 [SNI-1, 1-(3,4-dihydroxyphenyl)-2-((1-(p-tolyl)-1H-tetrazol-5-yl)thio)ethan-1-one] |  | 10% | ~75% | 11% | ~77% | ~8% | Binding with CARP-1 and inhibition of its interaction with NEMO (CARP-1 and NEMO binding): binds with CARP-1 and inhibits its interaction with NEMO; Response as a single agent in the syngeneic 4T1 TNBC model (4T1 TNBC): failed its response; Loss of viability in combination with cisplatin (previous studies) (MDA-MB-231 cells [4]): significant loss of viability
